Consider twelve compounds from PubChem BioAssay (NCI).

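The compound was tested at five concentrations on cells cultured in 96-well plates, with a 48-hour exposure period. GI50 marks 50% less growth. The concentration for full growth arrest is given as TGI.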

Among the test systems are OVCAR-4 ovarian; SK-MEL-2 melanoma; SK-OV-3 ovarian; OVCAR-3 ovarian; HOP-62 NSCLC; TK-10 renal; RXF 393 renal; NCI-H460 lung; OVCAR-8 ovarian; HT29 colon.
What all share (experiment): NCI tumour cell line growth inhibition, 48 h

For the compound `Oc1c(O)c(Cl)c(Cl)c(Cl)c1Cl`, the GI50 in the assay on OVCAR-4 ovarian was 2.44 µM; with SK-MEL-2 melanoma it was 4.1 µM; in the assay on SK-OV-3 ovarian it was 16 µM; with OVCAR-3 ovarian it was 2.44 µM; with HOP-62 NSCLC, 4.54 µM; in the assay on TK-10 renal, 9.42 µM. Besides, the GI50 in the assay on RXF 393 renal was 1.61 µM; with NCI-H460 lung it was 2.62 µM; in the assay on OVCAR-8 ovarian it was 2.89 µM; with HT29 colon, 4.89 µM. Also, the TGI in the assay with OVCAR-4 ovarian came to 8.86 µM; in the assay with SK-MEL-2 melanoma it was 15.2 µM; in the assay with SK-OV-3 ovarian, 44.5 µM; in the assay with OVCAR-3 ovarian it was 14.4 µM; in the assay on HOP-62 NSCLC, 17.3 µM; in the assay on TK-10 renal, 47.7 µM. Moreover, the TGI is 13.9 µM in the assay on RXF 393 renal, 13.3 µM in the assay on NCI-H460 lung, 13.9 µM with OVCAR-8 ovarian and 22.4 µM with HT29 colon.
Turning to `C=C(CN1c2ccccc2Sc2ccccc21)c1ccc(C(=O)Nc2ccccc2N)cc1`, the GI50 is 12 µM in the assay on OVCAR-4 ovarian; greater than 100 µM in the assay with SK-MEL-2 melanoma; 11.7 µM in the assay on SK-OV-3 ovarian; 8.08 µM in the assay on OVCAR-3 ovarian; greater than 46.7 µM in the assay with HOP-62 NSCLC; 23.9 µM with TK-10 renal. Further, the GI50 with RXF 393 renal was greater than 100 µM; in the assay on NCI-H460 lung it was 17.7 µM; with OVCAR-8 ovarian, greater than 80.4 µM; with HT29 colon, 11.5 µM. Also, the TGI in the assay on OVCAR-4 ovarian was 97.3 µM; in the assay with SK-MEL-2 melanoma, greater than 100 µM; in the assay with SK-OV-3 ovarian, greater than 100 µM; with OVCAR-3 ovarian, greater than 100 µM; in the assay on HOP-62 NSCLC, greater than 100 µM; with TK-10 renal, greater than 100 µM. For the same compound, the TGI with RXF 393 renal, with NCI-H460 lung, in the assay with OVCAR-8 ovarian and in the assay on HT29 colon was greater than 100 µM in each case.
Consider `CCc1nn2ncccc2c1-c1ccnc(NC2CC2)n1`, for which the GI50 with OVCAR-4 ovarian, in the assay on SK-MEL-2 melanoma, in the assay with SK-OV-3 ovarian, with OVCAR-3 ovarian, in the assay on HOP-62 NSCLC and in the assay on TK-10 renal was greater than 25 µM throughout. The GI50 in the assay with RXF 393 renal was greater than 23.4 µM; in the assay with NCI-H460 lung, greater than 25 µM; in the assay with OVCAR-8 ovarian it was greater than 25 µM; in the assay with HT29 colon, greater than 25 µM. Further, the TGI with OVCAR-4 ovarian, with SK-MEL-2 melanoma, in the assay with SK-OV-3 ovarian, with OVCAR-3 ovarian, in the assay on HOP-62 NSCLC and with TK-10 renal was greater than 25 µM throughout. Besides, the TGI with RXF 393 renal, in the assay with NCI-H460 lung, in the assay with OVCAR-8 ovarian and with HT29 colon was greater than 25 µM in each case.
For the compound `CC[C@@H](O)C[C@H]1CCC[C@@]2(C[C@@H]3OC(=O)/C=C/[C@@](C)(O)[C@@H](O)[C@H](C)[C@@H](O)[C@H](OC4CCC(N(C)C)C(C)O4)[C@@H](O)[C@](C)(O)CCCCC/C=C/[C@@H]4CC(C)(C)O[C@@]4(O)C[C@H](O2)[C@H]3C)O1` (stereo not given in full), the TGI in the assay with OVCAR-4 ovarian is 25.7 µM; in the assay on SK-MEL-2 melanoma it was 22.7 µM; with SK-OV-3 ovarian, 29.1 µM; with OVCAR-3 ovarian it was 25.5 µM; in the assay on HOP-62 NSCLC it was 26.2 µM; with TK-10 renal, 21.6 µM. Moreover, the TGI in the assay with RXF 393 renal is 34.6 µM; with NCI-H460 lung, 46.8 µM; in the assay with OVCAR-8 ovarian, 20.3 µM; in the assay on HT29 colon, greater than 39.7 µM.
Consider `Nc1ccc(-c2ccc3ncc4ccc(=O)n(-c5cccc(C(F)(F)F)c5)c4c3c2)cn1`, for which the GI50 in the assay with OVCAR-4 ovarian was less than 0.01 µM; in the assay on SK-MEL-2 melanoma, less than 0.01 µM; in the assay on SK-OV-3 ovarian, less than 0.01 µM; in the assay on OVCAR-3 ovarian, less than 0.01 µM; in the assay on HOP-62 NSCLC, less than 0.01 µM; with TK-10 renal it was less than 0.016 µM. The GI50 with RXF 393 renal was less than 0.01 µM; with NCI-H460 lung, less than 0.01 µM; with OVCAR-8 ovarian, less than 0.01 µM; in the assay with HT29 colon it was 0.115 µM. The TGI in the assay with OVCAR-4 ovarian was 0.0337 µM; in the assay with SK-MEL-2 melanoma, 0.0572 µM; in the assay with SK-OV-3 ovarian it was 0.0222 µM; with OVCAR-3 ovarian, 3.32 µM; in the assay on HOP-62 NSCLC it was 1.47 µM; with TK-10 renal it was 0.275 µM. In addition, the TGI with RXF 393 renal is 0.0443 µM; in the assay with NCI-H460 lung, 3.18 µM; with OVCAR-8 ovarian, greater than 33.7 µM; in the assay with HT29 colon it was 12 µM.
As to `COc1ccc2[nH]c(C(=O)OCc3ccc4cccc(O)c4n3)cc2c1`, the GI50 in the assay on OVCAR-4 ovarian is 1.83 µM; in the assay with SK-MEL-2 melanoma, 1.74 µM; in the assay with SK-OV-3 ovarian, 11.1 µM; in the assay with OVCAR-3 ovarian, 1.11 µM; in the assay on HOP-62 NSCLC, 1.52 µM; in the assay on TK-10 renal, 1.81 µM. For the same compound, the GI50 with RXF 393 renal was 1.06 µM; in the assay on NCI-H460 lung it was 2.24 µM; with OVCAR-8 ovarian, 1.38 µM; in the assay on HT29 colon it was 0.775 µM. Moreover, the TGI with OVCAR-4 ovarian stood at 3.55 µM; in the assay on SK-MEL-2 melanoma, 3.72 µM; with SK-OV-3 ovarian it was 23.2 µM; in the assay with OVCAR-3 ovarian, 2.41 µM; in the assay with HOP-62 NSCLC it was 3.5 µM; with TK-10 renal, 3.27 µM. For the same compound, the TGI with RXF 393 renal is 2.31 µM; in the assay with NCI-H460 lung it was 5.41 µM; with OVCAR-8 ovarian it was 4.04 µM; in the assay with HT29 colon it was 2.77 µM.
As to `CCN(CC)c1ccc(N=Nc2ccc(-c3nc4cccn(C)c-4n3)cc2)cc1`, the TGI in the assay with OVCAR-4 ovarian stood at 31.2 µM; in the assay with SK-MEL-2 melanoma it was 35.3 µM; in the assay with SK-OV-3 ovarian, 43.5 µM; in the assay on OVCAR-3 ovarian, 23.1 µM; in the assay on HOP-62 NSCLC, 24.7 µM; in the assay with TK-10 renal it was 68.2 µM. The TGI in the assay with RXF 393 renal amounted to 11.8 µM; with NCI-H460 lung it was 17.3 µM; in the assay with OVCAR-8 ovarian, 24 µM; in the assay with HT29 colon it was 13.8 µM.
Consider `Cc1ccc(O)c(NC2=C(Cl)C(=O)N(Cc3ccccc3)C2=O)c1`, for which the GI50 in the assay on OVCAR-4 ovarian was 31.7 µM; in the assay on SK-MEL-2 melanoma, 19 µM; in the assay on SK-OV-3 ovarian, 80.5 µM; in the assay on OVCAR-3 ovarian it was 14.9 µM; in the assay on HOP-62 NSCLC, 25.4 µM; in the assay on TK-10 renal it was 38.3 µM. Further, the GI50 in the assay with RXF 393 renal is 15 µM; in the assay on NCI-H460 lung it was 28.6 µM; in the assay with OVCAR-8 ovarian it was 18.3 µM; in the assay on HT29 colon, 33.3 µM. For the same compound, the TGI was greater than 100 µM in the assay with OVCAR-4 ovarian; 39 µM in the assay on SK-MEL-2 melanoma; greater than 100 µM in the assay with SK-OV-3 ovarian; 32.9 µM in the assay with OVCAR-3 ovarian; 72.5 µM in the assay with HOP-62 NSCLC; greater than 100 µM with TK-10 renal. Moreover, the TGI was 39.3 µM with RXF 393 renal, greater than 100 µM with NCI-H460 lung, 39.3 µM in the assay on OVCAR-8 ovarian and greater than 100 µM in the assay with HT29 colon.
With `OC(COc1ccccc1)CN1CCCCC1` (stereo not given), the TGI in the assay on OVCAR-4 ovarian, in the assay with SK-MEL-2 melanoma, in the assay on SK-OV-3 ovarian, in the assay with OVCAR-3 ovarian, in the assay on HOP-62 NSCLC and with TK-10 renal was greater than 100 µM in each case. Also, the TGI in the assay with RXF 393 renal, in the assay on NCI-H460 lung, in the assay on OVCAR-8 ovarian and in the assay on HT29 colon was greater than 100 µM throughout.
Turning to `COc1ccc2nc3cccc([N+](=O)[O-])c3c(NCCNCCN(C)C)c2c1`, the GI50 was 0.0199 µM in the assay with OVCAR-4 ovarian; 0.0308 µM in the assay on SK-MEL-2 melanoma; 0.279 µM with SK-OV-3 ovarian; 0.0992 µM in the assay on OVCAR-3 ovarian; 0.183 µM in the assay with HOP-62 NSCLC; 0.194 µM in the assay with TK-10 renal. Besides, the GI50 with RXF 393 renal is 0.0342 µM; with NCI-H460 lung it was 0.0253 µM; in the assay with OVCAR-8 ovarian, 0.044 µM; in the assay on HT29 colon, 0.0238 µM. Also, the TGI in the assay with OVCAR-4 ovarian came to 0.0509 µM; in the assay on SK-MEL-2 melanoma it was 0.107 µM; with SK-OV-3 ovarian, 1.06 µM; in the assay on OVCAR-3 ovarian it was 0.308 µM; in the assay on HOP-62 NSCLC, 0.698 µM; with TK-10 renal, 1.09 µM. The TGI turned out to be 0.122 µM in the assay with RXF 393 renal, 0.0967 µM in the assay with NCI-H460 lung, 0.277 µM in the assay with OVCAR-8 ovarian and 0.143 µM in the assay with HT29 colon.
Turning to `CCC[CH2][Sn]([CH2]CCC)([O]C(=O)c1cccc(F)c1F)[O]C(=O)c1cccc(F)c1F`, the GI50 is 1.86 µM with OVCAR-4 ovarian; 0.41 µM in the assay on SK-MEL-2 melanoma; 2.41 µM with SK-OV-3 ovarian; 1.37 µM in the assay on OVCAR-3 ovarian; 2.94 µM with HOP-62 NSCLC; 1.72 µM with TK-10 renal. For the same compound, the GI50 in the assay with RXF 393 renal is 0.321 µM; with NCI-H460 lung it was 1.7 µM; in the assay on OVCAR-8 ovarian it was 1.3 µM; in the assay with HT29 colon, 1.62 µM. Also, the TGI in the assay with OVCAR-4 ovarian stood at 3.31 µM; with SK-MEL-2 melanoma, 1.46 µM; with SK-OV-3 ovarian, 4.49 µM; with OVCAR-3 ovarian it was 2.68 µM; in the assay with HOP-62 NSCLC, 4.5 µM; in the assay on TK-10 renal it was 3.11 µM. The TGI with RXF 393 renal came out at 1.22 µM; with NCI-H460 lung, 3.24 µM; with OVCAR-8 ovarian, 2.57 µM; in the assay with HT29 colon it was 2.99 µM.
On to `CC1=C(C(=O)Nc2ccccc2)C(c2cc(Cl)cc(Cl)c2)C(C(=O)Nc2ccccc2)=C(C)N1`, for which the TGI with OVCAR-4 ovarian came to 19.2 µM; in the assay with SK-MEL-2 melanoma, 25.8 µM; in the assay on SK-OV-3 ovarian it was 98.7 µM; in the assay on OVCAR-3 ovarian, 22.1 µM; in the assay on HOP-62 NSCLC it was 31.1 µM; in the assay on TK-10 renal, 33.6 µM. The TGI in the assay with RXF 393 renal amounted to 26.3 µM; in the assay on NCI-H460 lung, 62.8 µM; with OVCAR-8 ovarian, 43.5 µM; with HT29 colon, 21.4 µM.
